Patent US8501910B2, “Protein sweetener” (Wisconsin Alumni Research Foundation, priority 2007, dated 2013)

Test system: humans
Assay: Human taste panel scoring sweetness on a magnitude labeled scale
Assay type: in vivo
Settings: for sweetness potency: FIG. 1, human taste panel, varied concentrations diluted in water, compared for the weight being tested
Text: To test the sweetness potency of our peptides we tested human perception of sweetness against known controls using varied concentrations of the protein (or other substance) being diluted in water. In the taste panel, humans were requested to score the sweetness sensations of the stimuli with a magnitude labeled scale in accordance with the techniques of B. Green et al., 21 Chemical Senses 323 (1996) (e.g. barely detectable; weak; moderate; strong; very strong; strongest imaginable).
We first gave those testers a sample of pure water with 2-10% sucrose as a calibration exercise two hours before protein testing. After the sucrose testing, they rinsed their mouth out thoroughly. The normal protocol included applying about 125 μI of the substance being tasted to the tongue, with the tested material kept in the mouth for about a minute.

Substance | sweetness potency | sweetness potency (individual observer) (tested by one individual observer, not a complete panel)
SEQ ID NO. 8: Brazzein variant with Gly Pro inserted at the N terminus of wild type Brazzein (GPDKCKKVYENYPVSKCQLANQCNYPCKLNKHARSGECFYDEKRNLQCICDYCEY) | significantly higher sweetness potency than either sucrose or wild type Brazzein | –
SEQ ID NO. 6: Brazzein variant Y53H: tyrosine at position 53 of SEQ ID NO: 1 replaced (DKCKKVYENYPVSKCQLANQCNYDCKLKKHARSGECFYDEKRNLQCICDYCEH) | significantly higher sweetness potency than sucrose | –
SEQ ID NO. 4: Brazzein variant with tyrosine at position 53 of SEQ ID NO: 1 replaced by another amino acid (probably Phe) (DKCKKVYENYPVSKCQLANQCNYDCKLKKHARSGECFYDEKRNLQCICDYCEF) | – | results similar to those for SEQ ID NO.5
SEQ ID NO. 7: Brazzein variant with Ile Ile inserted at the N terminus of wild type Brazzein (IIDKCKKVYENYPVSKCQLANQCNYDCKLNKHARSGECFYDEKRNLQCICDYCEY) | significantly higher sweetness potency than either sucrose or wild type Brazzein | –
SEQ ID NO. 5: Brazzein variant Y53W: tyrosine at position 53 of SEQ ID NO: 1 replaced (DKCKKVYENYPVSKCQLANQCNYDCKLKKHARSGECFYDEKRNLQCICDYCEW) | significantly higher sweetness potency than either sucrose or wild type Brazzein | –
